Test results published in US12281363B2, “Methods for detecting antiviral-drug resistant virus” (Secretary of State for Health and Social Care, priority 2018, dated 2025).
Read-outs that look alike come from different tables or passages of the source.

Test system: HSV-1
Assay: Plaque reduction assay, HSV-1 clinical isolates on Vero cells
Assay type: cell-based
Conditions: Human alphaherpesvirus 1, Vero
Description: Viral isolates were used to infect a sub-confluent monolayer of Vero cells at a concentration of 75 or 50 plaque forming units (PFU) per well for HSV-1 and HSV-2, respectively. […] CMC medium typically used to create a semisolid interface and prevents indiscrimate viral spreading. Other materials (e.g. agar) may also be used to create this interface.
Cells were fixed with 10% formalin and stained with crystal violet before enumeration of the plaques (microscopic observation or use of fluorescent antibodies for detection is also suitable). The data obtained from these experiments were then expressed as percent inhibition of viral infectivity relative to the no drug control.
Definitions of phenotypic drug susceptibility classification as sensitive or resistant were as follows: ACV, <3 μM or >40 μM; PCV, <10 μM or >40 μM; CDV, <24 μM or >30 μM; FOS, <250 μM or >400 μM; and ACV, <6.5 μM or >40 μM; PCV, <38 μM or >40 μM; FOS, <250 μM or >400 μM for HSV-1 and HSV-2, respectively. Any IC50 values falling in between these sensitive and resistant cut-offs were reported as intermediate resistance.
The phenotype (i.e. reactivity to a drug) of the virus was characterised by the plaque reduction assay as described above.

Q: For `Nc1nc2c(ncn2CCC(CO)CO)c(=O)[nH]1` [Penciclovir, penciclovir], which IC50 (isolate HPG033, HSV-1 TK I358L (1072A>C), also TK T287M, read-out: Drug susceptibility (IC50 value)) is on record?
A: > 160 µM

Q: And the IC50 (isolate HPG033, HSV-1 TK I358L (1072A>C), also TK T287M, read-out: Drug susceptibility Penciclovir (PCV))?
A: > 40 µM

Q: What about the IC50 (isolate HPG033, HSV-1 pol N1046T (3137A>C), also TK T287M, pol A1169T, read-out: Drug susceptibility (IC50 value)) of the same compound?
A: > 160 µM

Q: What about the IC50 (isolate HPG033, HSV-1 pol N1046T (3137A>C), also TK T287M, pol A1169T, read-out: Drug susceptibility Penciclovir (PCV)) of the same compound?
A: > 40 µM

Q: What about the IC50 (isolate HPG035, HSV-1 pol S239L (716C>T), also pol S724N, read-out: Drug susceptibility (IC50 value)) of the same compound?
A: 14.6 µM

Q: What about the IC50 (isolate HPG035, HSV-1 pol S239L (716C>T), also pol S724N, read-out: Drug susceptibility Penciclovir (PCV)) of the same compound?
A: 10 to 40 µM

Q: What about the IC50 (isolate HPG037, HSV-1 TK L69M (205>A), also TK Y239H, read-out: Drug susceptibility Penciclovir (PCV)) of the same compound?
A: > 40 µM

Q: And the IC50 (isolate HPG037, HSV-1 TK R256W (766C>T), read-out: Drug susceptibility (IC50 value))?
A: > 160 µM

Q: And the IC50 (isolate HPG037, HSV-1 TK R256W (766C>T), read-out: Drug susceptibility Penciclovir (PCV))?
A: > 40 µM

Q: What about the IC50 (isolate HPG037, HSV-1 TK Y239H (715T>C), read-out: Drug susceptibility (IC50 value)) of the same compound?
A: > 160 µM

Q: What about the IC50 (isolate HPG037, HSV-1 TK Y239H (715T>C), read-out: Drug susceptibility Penciclovir (PCV)) of the same compound?
A: > 40 µM

Q: What about the IC50 (isolate HPG039, HSV-1 TK 85* or H58fs (169delC, 170delC, 171delC, or 172delC), read-out: Drug susceptibility (IC50 value)) of the same compound?
A: 158 µM

Q: What about the IC50 (isolate HPG039, HSV-1 TK 85* or H58fs (169delC, 170delC, 171delC, or 172delC), read-out: Drug susceptibility Penciclovir (PCV)) of the same compound?
A: > 40 µM

Q: What about the IC50 (isolate HPG040, HSV-1 pol S911N (2732G>A), also TK deletion (C) nt 896-900, pol A1169T, read-out: Drug susceptibility (IC50 value)) of the same compound?
A: > 160 µM

Q: What about the IC50 (isolate HPG040, HSV-1 pol S911N (2732G>A), also TK deletion (C) nt 896-900, pol A1169T, read-out: Drug susceptibility Penciclovir (PCV)) of the same compound?
A: > 40 µM

Q: What about the IC50 (isolate HPG041, HSV-1 pol S911N (2732G>A), also pol A1169T, read-out: Drug susceptibility (IC50 value)) of the same compound?
A: 3 µM

Q: What about the IC50 (isolate HPG041, HSV-1 pol S911N (2732G>A), also pol A1169T, read-out: Drug susceptibility Penciclovir (PCV)) of the same compound?
A: < 10 µM

Q: And the IC50 (isolate HPG042, HSV-1 pol A972V (2915C>T), also TK deletion (C) nt 881-885, pol A1169T, read-out: Drug susceptibility (IC50 value))?
A: > 160 µM

Q: What about the IC50 (isolate HPG042, HSV-1 pol A972V (2915C>T), also TK deletion (C) nt 881-885, pol A1169T, read-out: Drug susceptibility Penciclovir (PCV)) of the same compound?
A: > 40 µM

Q: What about the IC50 (isolate HPG042, HSV-1 pol G22R (64G>A), also TK deletion (C) nt 881-885, pol A1169T, read-out: Drug susceptibility (IC50 value)) of the same compound?
A: > 160 µM

Q: And the IC50 (isolate HPG042, HSV-1 pol G22R (64G>A), also TK deletion (C) nt 881-885, pol A1169T, read-out: Drug susceptibility Penciclovir (PCV))?
A: > 40 µM

Q: What about the IC50 (isolate HPG043, HSV-1 TK 183* (437_438insA), read-out: Drug susceptibility (IC50 value)) of the same compound?
A: > 160 µM

Q: What about the IC50 (isolate HPG043, HSV-1 TK 183* (437_438insA), read-out: Drug susceptibility Penciclovir (PCV)) of the same compound?
A: > 40 µM

Q: What about the IC50 (isolate HPG045, HSV-1 TK L49R (146T>G), read-out: Drug susceptibility (IC50 value)) of the same compound?
A: > 160 µM

Q: And the IC50 (isolate HPG045, HSV-1 TK L49R (146T>G), read-out: Drug susceptibility Penciclovir (PCV))?
A: > 40 µM

Q: What about the IC50 (isolate HPG045, HSV-1 pol L419I (1255C>A), also TK L49R, pol A1169T, read-out: Drug susceptibility (IC50 value)) of the same compound?
A: > 160 µM

Q: And the IC50 (isolate HPG045, HSV-1 pol L419I (1255C>A), also TK L49R, pol A1169T, read-out: Drug susceptibility Penciclovir (PCV))?
A: > 40 µM

Q: What about the IC50 (isolate HPG046, HSV-1 TK I166N (497T>A), read-out: Drug susceptibility (IC50 value)) of the same compound?
A: 98.5 µM

Q: What about the IC50 (isolate HPG046, HSV-1 TK I166N (497T>A), read-out: Drug susceptibility Penciclovir (PCV)) of the same compound?
A: > 40 µM

Q: And the IC50 (isolate HPG047, HSV-1 pol E680 (2039A>C), also TK deletion (C) nt 548-553, pol A1169T, read-out: Drug susceptibility Penciclovir (PCV))?
A: > 40 µM

Q: And the IC50 (isolate HPG050, HSV-1 TK Q34* (100C>T), read-out: Drug susceptibility (IC50 value))?
A: > 160 µM

Q: And the IC50 (isolate HPG050, HSV-1 TK Q34* (100C>T), read-out: Drug susceptibility Penciclovir (PCV))?
A: > 40 µM

Q: What about the IC50 (isolate HPG051, HSV-1 pol D83A (248A>C), also TK R176stop, read-out: Drug susceptibility (IC50 value)) of the same compound?
A: > 160 µM

Q: And the IC50 (isolate HPG051, HSV-1 pol D83A (248A>C), also TK R176stop, read-out: Drug susceptibility Penciclovir (PCV))?
A: > 40 µM

Q: What about the IC50 (isolate HPG052, HSV-1 TK Q34* (100C>T), read-out: Drug susceptibility (IC50 value)) of the same compound?
A: 25 µM

Q: What about the IC50 (isolate HPG052, HSV-1 TK Q34* (100C>T), read-out: Drug susceptibility Penciclovir (PCV)) of the same compound?
A: 10 to 40 µM

Q: What about the IC50 (isolate HPG053, HSV-1 pol L802R + A834S (2405T>G, 2500G>T), also TK R176W, read-out: Drug susceptibility Penciclovir (PCV)) of the same compound?
A: > 40 µM

Q: What about the IC50 (isolate HPG053, HSV-1 pol S911N (2732G>A), also TK R176W, pol A1169T, read-out: Drug susceptibility (IC50 value)) of the same compound?
A: > 160 µM

Q: What about the IC50 (isolate HPG053, HSV-1 pol S911N (2732G>A), also TK R176W, pol A1169T, read-out: Drug susceptibility Penciclovir (PCV)) of the same compound?
A: > 40 µM

Q: And the IC50 (isolate HPG054, HSV-1 pol E992K (2974G>A), also TK insert (G) nt 430-436, pol A1169T, read-out: Drug susceptibility (IC50 value))?
A: > 160 µM

Q: What about the IC50 (isolate HPG054, HSV-1 pol E992K (2974G>A), also TK insert (G) nt 430-436, pol A1169T, read-out: Drug susceptibility Penciclovir (PCV)) of the same compound?
A: > 40 µM

Q: What about the IC50 (isolate HPG055, HSV-1 TK V204G (611T>G), also pol A1169AT, read-out: Drug susceptibility (IC50 value)) of the same compound?
A: 9.34 µM

Q: What about the IC50 (isolate HPG055, HSV-1 TK V204G (611T>G), also pol A1169AT, read-out: Drug susceptibility Penciclovir (PCV)) of the same compound?
A: < 10 µM

Q: What about the IC50 (read-out: Drug susceptibility (IC50 value), isolate HPG005, HSV-1 TK A192T (574G>A)) of the same compound?
A: 5.19 µM

Q: What about the IC50 (read-out: Drug susceptibility (IC50 value), isolate HPG006, HSV-1 pol G121S (361G>A), also a TK resistance mutation (footnote a)) of the same compound?
A: > 160 µM

Q: What about the IC50 (read-out: Drug susceptibility (IC50 value), isolate HPG012, HSV-1 pol G985E (2954G>A), also TK A93V) of the same compound?
A: 9.67 µM

Q: What about the IC50 (read-out: Drug susceptibility (IC50 value), isolate HPG016, HSV-1 pol A1169T (3505G>A)) of the same compound?
A: 7.19 µM

Q: And the IC50 (read-out: Drug susceptibility (IC50 value), isolate HPG037, HSV-1 TK L69M (205>A), also TK Y239H)?
A: > 160 µM

Q: What about the IC50 (read-out: Drug susceptibility (IC50 value), isolate HPG042, HSV-1 TK frameshift (881delC to 885delC)) of the same compound?
A: > 160 µM

Q: And the IC50 (read-out: Drug susceptibility (IC50 value), isolate HPG047, HSV-1 pol E680 (2039A>C), also TK deletion (C) nt 548-553, pol A1169T)?
A: > 160 µM

Q: What about the IC50 (read-out: Drug susceptibility Penciclovir (PCV), isolate HPG005, HSV-1 TK A192T (574G>A)) of the same compound?
A: < 10 µM

Q: What about the IC50 (read-out: Drug susceptibility Penciclovir (PCV), isolate HPG006, HSV-1 pol G121S (361G>A), also a TK resistance mutation (footnote a)) of the same compound?
A: > 40 µM

Q: And the IC50 (read-out: Drug susceptibility Penciclovir (PCV), isolate HPG012, HSV-1 pol G985E (2954G>A), also TK A93V)?
A: 10 to 40 µM

Q: What about the IC50 (read-out: Drug susceptibility Penciclovir (PCV), isolate HPG016, HSV-1 pol A1169T (3505G>A)) of the same compound?
A: < 10 µM

Q: What about the IC50 (read-out: Drug susceptibility Penciclovir (PCV), isolate HPG042, HSV-1 TK frameshift (881delC to 885delC)) of the same compound?
A: > 40 µM
